Here are results for 1 substance from patent publication US11674962B2, “Therapeutic and diagnostic methods for cancer” (Genentech, Inc., priority 2017, dated 2023).

For the test, the system named is locally advanced or metastatic non-small cell lung cancer (NSCLC). Kind of test: POPLAR phase II clinical trial (NCT01903993): atezolizumab vs docetaxel, outcomes by bTMB score. The conditions noted are these: for OS HR (95% CI) / PFS HR (95% CI) / OS HR / PFS HR: atezolizumab vs docetaxel. Format: in vivo, human. As to the method: A blood-based assay was used to evaluate the association between clinical response to treatment with atezolizumab (MPDL3280A) and blood tumor mutational burden (bTMB) score in patients with non-small cell lung cancer (NSCLC) enrolled in two clinical trials, a phase II clinical trial, POPLAR (Clinical Trial ID No.: NCT01903993), and a phase III clinical trial, OAK (Clinical Trial ID No.: NCT02008227), in which atezolizumab was administered as a monotherapy.
Pre-treatment blood samples from patients with NSCLC who were enrolled in the POPLAR and/or the OAK studies, in which atezolizumab was administered as a monotherapy, were evaluated for bTMB score and/or maximum somatic allele frequency (MSAF).
The POPLAR (Clinical Trial ID No.: NCT01903993) patient population evaluated for bTMB score consisted of 273 patients. Patients were eligible for enrollment in the POPLAR study if they had locally advanced or metastatic (e.g., stage IIIB, stage IV, or recurrent) non-small cell lung cancer (NSCLC); disease progression during or following treatment with a prior platinum-containing regimen for locally advanced, unresectable/inoperable, or metastatic NSCLC, or disease recurrence within 6 months of treatment with a platinum-based adjuvant/neoadjuvant regimen; measurable disease, as defined by RECIST v1.1; and an Eastern Cooperative Oncology Group (ECOG) performance status of 0 or 1. Participants were randomized to receive either atezolizumab at a dose of 1200 mg intravenously every three weeks or docetaxel 75 mg per meter square (mg/m^2) intravenously every three weeks. Treatment with atezolizumab could be continued as long as participants were experiencing clinical benefit, i.e., in the absence of unacceptable toxicity or symptomatic deterioration attributed to disease progression.
Analysis of bTMB was performed retrospectively. Progression-free survival (PFS) was defined as the time between date of randomization and date of first documented disease progression as assessed by the investigator using RECIST v.1.1 or death from any cause, whichever occurred first. Overall survival (OS) was defined as the time between the date of randomization until death due to any cause. Treatment arms were compared for OS and PFS individually using a univariate Cox regression model without stratification in the biomarker evaluable-population (BEP) and their subgroups or using a stratified (by randomization stratification factors) Cox model in the ITT population. No multiplicity correction was applied to p-values or confidence intervals (CI). Kaplan-Meier methodology was used to estimate median OS and PFS and construct survival curves.
In the POPLAR ITT population (N=287), 273 samples were available for analysis. Of these, 6 were removed for sample contamination >1%; 9 were removed for median exon coverage <800×; and 47 were removed for low MSAF<1%.
The POPLAR BEP (N=211) includes 15 patients with EGFR mutation or ALK rearrangement, and 196 without known alterations.
To identify somatic mutations and calculate a bTMB score, whole blood samples obtained from each patient (collected in EDTA or Streck tubes) were processed through a series of spins to isolate plasma, from which cell free DNA (cfDNA) was extracted for sequencing analysis. Specifically, at least 20 ng purified cfDNA was used for library construction. Next-generation sequencing libraries using fragment barcodes and hybrid capture were constructed to analyze and sequence a pre-determined set of 394 genes that covered approximately 1.125 Mb of the exome. Specifically, purified libraries were hybrid captured using a 394-gene bait set and then further purified, pooled and loaded on an ILLUMINA® HISEQ® 4000 sequencing system. Sequenced libraries were aligned and sorted. […]

Setting [1] is: bTMB score subgroup ≥10 (96 patients).
[2] abbreviates: bTMB score subgroup ≥16 (63 patients).
[3] abbreviates: bTMB score subgroup ≥20 (42 patients).

Values joined by “and” are separate entries in the source; they are usually repeats but may differ in a detail not shown here. Identical values can stand only once.

As for atezolizumab, the “OS HR (95% CI)” value is, setting by setting: (BEP (n = 211)) 0.68; (ITT (n = 287)) 0.69 and 0.73. The “PFS HR (95% CI)” value by setting is: (BEP (n = 211)) 0.9; (ITT (n = 287)) 0.92 and 0.94. The “OS HR” value reads like this: under setting [1], 0.59; under setting [2], 0.56; under setting [3], 0.51. In addition, the “PFS HR” value is, setting by setting: under setting [1], 0.68; under setting [2], 0.57; under setting [3], 0.58; (reference bTMB score of 18 (Dx+, n=52)) 0.57. Besides, where the note is “bTMB≥16, per treatment arm”, the “median OS” value was 13.0 months. The “median PFS” value (bTMB≥16, per treatment arm) was found to be 4.2 months.
